{
  "source": "paper PMC6796237",
  "about": "(ACS Omega, 2019)",
  "target": "recombinant HCV NS3/4A GT1b wt (Hepatitis C virus genotype 1b, UniProt Q9WMX2)",
  "sequence (Q9WMX2 1027-1657 limits assumed)": "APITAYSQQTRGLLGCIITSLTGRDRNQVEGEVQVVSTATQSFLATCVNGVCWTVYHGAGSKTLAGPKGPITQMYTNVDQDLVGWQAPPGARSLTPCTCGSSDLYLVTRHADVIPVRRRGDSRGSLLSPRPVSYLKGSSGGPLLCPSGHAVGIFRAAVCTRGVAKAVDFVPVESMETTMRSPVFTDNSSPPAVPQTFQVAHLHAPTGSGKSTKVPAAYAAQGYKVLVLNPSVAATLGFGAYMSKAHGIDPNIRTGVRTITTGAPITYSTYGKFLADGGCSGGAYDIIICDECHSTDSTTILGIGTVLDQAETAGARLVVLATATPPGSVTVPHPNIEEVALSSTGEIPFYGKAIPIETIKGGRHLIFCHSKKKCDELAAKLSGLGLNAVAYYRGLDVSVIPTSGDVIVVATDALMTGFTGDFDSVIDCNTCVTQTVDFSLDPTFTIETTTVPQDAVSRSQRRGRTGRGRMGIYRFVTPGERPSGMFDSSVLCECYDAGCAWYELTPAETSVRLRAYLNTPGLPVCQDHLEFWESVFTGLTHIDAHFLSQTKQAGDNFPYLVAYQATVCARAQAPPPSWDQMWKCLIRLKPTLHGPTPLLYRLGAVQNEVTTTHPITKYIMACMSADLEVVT",
  "sequence (Q9WMX2 1658-1711 partner limits assumed)": "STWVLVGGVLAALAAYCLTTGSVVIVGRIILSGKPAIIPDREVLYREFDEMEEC",
  "test": "HCV NS3/4A enzymatic inhibition assay, wild type",
  "assay_type": "biochemical",
  "details": "compounds at 13.08, 14.68, 4.60 μM of 1, 12, 22; 40 nM enzyme",
  "data": [
    {"substance": "3-(1H-Indol-3-yl)-2-(3-(4-isopropylphenyl)ureido)-N-(3-(piperidin-1-yl)propyl)propenamide [Compound 22]", "values": [
      {"measurement": "Decrease of HCV NS3/4A activity", "result": "about 50%"}
    ]}
  ]
}
